We go through 48 compounds from PubChem BioAssay (NCI).

SMILES strings stand for the structures.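 Grown in 96-well plates, cells were treated for 48 hours with each compound at five concentrations. Insufficient inhibition: endpoint recorded as highest concentration tested. The concentration for 50% growth inhibition is given as GI50. TGI denotes the concentration required for complete inhibition of growth.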 Some results are limits rather than exact numbers.

This experiment has as its system MDA-MB-468 breast. Briefly: growth of human tumour cells (NCI), 48 h.
`c1ccc(N2N=C(c3cccc(Nc4ccncc4)c3)CC2c2ccc3c(c2)OCO3)cc1` (stereo not given): the GI50 is 1470 nM and the TGI amounted to 3 µM.

Regarding `NS(=O)(=O)OCC1OC(n2cnc3cncnc32)C(O)C1O` (stereo not given), the GI50 is 18.9 nM and the TGI turned out to be 0.0485 µM.

`COc1ccc2sc3cccc(NCCN(C)C)c3c(=O)c2c1`: the GI50 is 2000 nM and the TGI was 4.5 µM.

On to `CC[C@@H]1[C@@H](C)O[C@@](O)([C@@H](C)[C@H](O)[C@H](C)[C@H]2OC(=O)/C=C/C=C/[C@H](C)[C@@H]([C@@H](C)[C@@H](O)[C@H](C)[C@@]3(O)C[C@@H](O[C@H]4C[C@@H](O)[C@H](O)C(C)O4)[C@H](CC)[C@@H](C)O3)OC(=O)/C=C/C=C/[C@@H]2C)C[C@H]1O[C@@H]1C[C@@H](O)[C@H](O)C(C)O1` (stereo not given in full), for which the GI50 is 68.8 nM and the TGI is 0.204 µM.

In the case of `CCOC(=O)c1ccc(Nc2sc(C(=O)c3ccc(Br)cc3)c(N)c2C#N)cc1`, the GI50 was 666 nM and the TGI was above 100 µM.

Regarding `CN(C)c1ccc(/C=C/c2ccnc3c(O)cccc23)cc1`, the GI50 was 574 nM and the TGI came out at 3.34 µM.

Regarding `CCOC(=O)c1ccccc1OC(=O)NNc1ccccc1`, the GI50 is 11100 nM and the TGI is above 100 µM.

Turning to `NC1=CC(=O)c2cccnc2C1=O`, the GI50 is 1350 nM and the TGI came out at 3.03 µM.

For `CC(C)(C)N1CCC1CN` (stereo not given), the GI50 is above 100000 nM and the TGI is above 100 µM.

As for `Cc1cc(Cl)cc2c(N=Nc3ccc(S(N)(=O)=O)cc3)c(O)[nH]c12`, the GI50 was above 25000 nM and the TGI was above 25 µM.

As for `O=C(COc1ccc(/C=C2\COc3ccccc3C2=O)cc1)Nc1nccs1`, the GI50 was 2040 nM and the TGI is 4.73 µM.

In the case of `CN1CCC(COc2cnc(-c3cccc(Cn4nc(-c5cccc(C#N)c5)ccc4=O)c3)nc2)CC1`, the GI50 is 1490 nM and the TGI came to 3.23 µM.

As to `C[n+]1c(/C=C/c2c[nH]c3ccccc23)ccc2ccccc21`, the GI50 is 1800 nM and the TGI is 13 µM.

For the compound `COc1cc2nccc(Oc3ccc(NC(=O)NC4CC4)c(Cl)c3)c2cc1C(N)=O`, the GI50 was 12500 nM and the TGI was above 80.8 µM.

Turning to `CC1(C)N=C(N)N=C(N)N1c1ccc(CCCCc2ccccc2)c(Cl)c1`, the GI50 is 19.6 nM and the TGI was determined as 1.12 µM.

As to `Cc1ccc(NC(=O)c2ccc(CN3CCN(C)CC3)cc2)cc1Nc1nccc(-c2cccnc2)n1`, the GI50 is 13900 nM and the TGI amounted to 36.2 µM.

Consider `CCCCCCCC/C=C/CCCCCCCC1=NC(C)(C)CN1CC(C)O` (stereo not given), for which the GI50 was 4870 nM and the TGI was determined as 10.9 µM.

`CC[C@H](NC(=O)[C@H]1CCCCN1C)C(=O)N(C)[C@H](C[C@@H](OC(C)=O)c1nc(C(=O)N[C@@H](Cc2ccccc2)C[C@H](C)C(=O)O)cs1)C(C)C`: the GI50 was 1.99 nM and the TGI is above 14.3 µM.

For the compound `CCOC(=O)[C@@H](C)C[C@H](Cc1ccccc1)NC(=O)c1nc([C@@H](C[C@H](C(C)C)N(C)C(=O)[C@@H](NC(=O)[C@H]2CCCCN2C)C(C)C)OC(C)=O)sc1CCOCc1ccccc1`, the GI50 is 37.4 nM and the TGI amounted to 0.492 µM.

For `Oc1ccc(CSc2nnc(-c3ccncc3)o2)c2cccnc12`, the GI50 is 2270 nM and the TGI was determined as 8.64 µM.

As for `COc1cccc(CCC2CCCN(c3cc(C)nc(N)n3)C2)c1` (stereo not given), the GI50 was 180 nM and the TGI worked out at 0.952 µM.

Take `Cn1cc(C2=C(c3ccccc3[N+](=O)[O-])C(=O)NC2=O)c2ccccc21`: the GI50 was 4080 nM and the TGI was determined as 10.5 µM.

With `NCCCNc1nc2ccccc2c2c(=O)c3cc(F)cc(F)c3sc12`, the GI50 was 1710 nM and the TGI stood at 3.81 µM.

On to `CCN(CC)c1ccc(NC2=C(Cl)C(=O)c3nc(C)ccc3C2=O)cc1`, for which the GI50 is 1880 nM and the TGI came out at 4.05 µM.

As for `CCOC(=O)C1=C(C)N=c2s/c(=C\c3ccccc3O)c(=O)n2C1c1ccc(OC)c2ccccc12` (stereo not given), the GI50 was 4550 nM and the TGI is 21.2 µM.

Turning to `COC(=O)[C@@H](C)C[C@H](Cc1cn(C)c2ccccc12)NC(=O)c1csc([C@@H](C[C@H](C(C)C)N(C)C(=O)[C@@H](NC(=O)[C@H]2CCCCN2C)C(C)C)OC(C)=O)n1`, the GI50 is 5.85 nM and the TGI was above 16.7 µM.

Take `COC1=CC(c2ccc[nH]2)=N/C1=C\c1[nH]c(C)c(CC(=O)OCc2ccccc2)c1CCC(=O)OCc1ccccc1`: the GI50 is 510 nM and the TGI stood at 2.96 µM.

Consider `Nc1ccccc1NC(=O)c1ccc(CNc2nccc(-c3cccnc3)n2)cc1`, for which the GI50 is 496 nM and the TGI came out at 2.25 µM.

Regarding `CC[C@H]1CN2CCc3cc(OC)c(OC)cc3C2C[C@@H]1CC1NCCc2cc(OC)c(OC)cc21` (stereo not given in full), the GI50 is 11.8 nM and the TGI stood at 0.0377 µM.

Consider `CSC1=Nc2c(c(C)c(-c3ccccc3)n2CCCN2CCCCC2)C2=NC(=O)C[C@H](C)N12`, for which the GI50 was 2460 nM and the TGI was found to be 9.51 µM.

Turning to `Cc1cc(Nc2ccc(OCc3ccccc3)cc2)nc2cc(O)ccc12`, the GI50 was 2590 nM and the TGI turned out to be 8.74 µM.

As for `CCN(CC)CCNc1ccc(C)c2sc3cc(Cl)ccc3c(=O)c12`, the GI50 was 2070 nM and the TGI is 4.21 µM.

Regarding `Cc1cc(=O)[nH]c(N/N=C/c2cc(Br)ccc2O)n1`, the GI50 was 460 nM and the TGI was determined as 16.5 µM.

With `C=C(C)[C@@H]1CC[C@]2(COCCC#N)CC[C@]3(C)[C@H](CC[C@@H]4[C@@](C)(CCCNCCC#N)[C@H](C(=C)C)CC[C@]43C)[C@@H]12`, the GI50 was 17300 nM and the TGI is above 50 µM.

With `COc1ccc(/C=C(/C(=O)N2CCN(c3ccccc3)CC2)c2cc(OC)c(OC)c(OC)c2)cc1N`, the GI50 is 251 nM and the TGI was above 100 µM.

As to `O=C1/C(=C\c2ccc(F)cc2)CN(C(=O)c2ccccc2)C/C1=C\c1ccc(F)cc1`, the GI50 was 1630 nM and the TGI is 3.71 µM.

For `COc1ccc(C(=O)Nc2ncc(Cc3cccc(Cl)c3)s2)cc1OC`, the GI50 was 307 nM and the TGI is above 95.9 µM.

On to `COc1cc2c(c(OC)c1OC)-c1ccc(OC)c(=O)cc1[C@@H](N)CC2`, for which the GI50 is below 10 nM.

As for `COc1cc([C@@H]2c3cc4c(c(O)c3C[C@H]3COC(=O)[C@@H]32)OCO4)cc(OC)c1OC`, the GI50 was 65.7 nM and the TGI worked out at 0.311 µM.

Consider `C[C@]12CCc3nc(Nc4cccc(O)c4)sc3C1=CC[C@@H]1[C@@H]2CC[C@]2(C)/C(=N\NC(N)=S)CC[C@@H]12`, for which the GI50 is 1860 nM and the TGI came to 4.23 µM.

For `N#Cc1c(NC(=O)NCc2ccccc2)sc2c1CCCC2`, the GI50 is 425 nM and the TGI is 11.3 µM.

With `C[C@]12CC[C@@H]3c4cc(OC(F)F)c(O)cc4CC[C@H]3[C@@H]1CC[C@@H]2OS(N)(=O)=O`, the GI50 is 504 nM and the TGI came to 30.4 µM.

For `CSc1ccc(-c2ccccc(=O)c2O)cc1`, the GI50 is 334 nM and the TGI was 4.18 µM.

In the case of `Cc1ccc(Cl)cc1Nc1nc(C(F)(F)F)ccc1C(=O)N/N=C/c1cccnc1`, the GI50 was 1410 nM and the TGI came to 10.2 µM.

As to `O=C1CC[C@H](N2C(=O)c3cccc4c(Cc5ccc(CN6CCOCC6)cc5)ccc2c34)C(=O)N1`, the GI50 was 2730 nM and the TGI was 62.5 µM.

With `Nc1c(C(=O)c2ccc(-c3cccnc3)cc2)cnn1-c1ccc(F)cc1`, the GI50 was above 25000 nM and the TGI is above 25 µM.

For the compound `Cc1cccc(-c2[nH]ncc2-c2ccc3ncccc3n2)n1`, the GI50 was 7340 nM and the TGI is above 16.5 µM.

Consider `COc1ccc(N=Cc2c(O)ccc3c2oc2cc(Cl)c(O)c(Cl)c23)cc1`, for which the GI50 was 14200 nM and the TGI is 67.6 µM.
